Reference: patent publication US20250368617A1, “NOVEL RAS INHIBITORS” (KHR BIOTEC GMBH, priority 2022, published 2025)

Legend:
[1] = system: LgBit-KRAS mutants (G12V, G12C, G12D, G12C/Y96D, G13C, G13D, G13S, Q61K and Q61R); test: NanoBit assay for inhibition of RAS activation, KRAS mutants in HeLa cells; format: cell-based; conditions: LgBit-KRAS mutants and SmBit-CRAF-RBD, 2 h in serum-free DMEM
Procedure: FIG. 3: NanoBit assay for inhibition of RAS activation (G12V, G12C, G12D, G12C/Y96D, G13C, G13D, G13S, Q61K and Q61R)
NanoBiT assay for the RAS GTP-loading was performed in HeLa cells transfected with LgBit-KRAS mutants and SmBit-CRAF-RBD. Cells were treated with GSK2126458 according to the invention for 2 h in serum-free DMEM. After incubation, the substrate for NanoLuc was added, and the luminescence was measured in a multiplate reader. Data were normalized to cells transfected with the indicated mutant and exposed to DMSO for 2 h. DMSO-treated cells were set as 1. The bars represent mean±SEM from 3 independent experiments.

HRAS G12V = biological target: T1, HRAS G12V (Homo sapiens, UniProt P01112, G12V); test: NanoBit assay for RAS activation (LgBiT-HRAS G12V / SmBiT-CRAF RAS binding domain); format: cell-based; conditions: HRAS G12V with CRAF RBD (1-149); 2 h with inhibitor in serum free DMEM; DMSO set as 1
T1 construct: K, N and HRAS G12V (full length) was cloned with Xho I and BgI II to LgBit; expressed in transfected cells
Procedure: (§1) FIGS. 1a) and 1b): NanoBit assay for RAS activation (KRAS G12V, NRAS G12V, HRAS G12V) N-terminal LgBiT and C-terminal SmBiT construct was purchased from Promega and K, N and HRAS G12V (full length) was cloned with Xho I and BgI II to LgBit and CRAF RAS binding domain (1-149) was cloned with EcoRI and BgI II to SmBit. For transfections, 1 μg or 2 μg of (12 well/6 well) plasmids were transfected into cells with 0.5 mM of PEI reagent in 100 μl or 200 μl PBS. One day after transfection, cells were harvested and seeded into 96 well white plates, half area (Greiner). After an additional day the medium was changed to serum free DMEM and the cells were incubated for 2 h with inhibitors. NanoGlo assay was performed according to the manufacturer's instructions. The luminescence was measured using Tecan infinite (Tecan). DMSO-treated cells were set as 1. The results shown are mean mean±SEM from at least 3 independent experiments.

[2] = system: p110a, p110β, p110γ, p110σ, and the mTOR1 and mTOR2 complexes and DNA-PK; conditions: ATP-competitive, reversible; cited from earlier work
KRAS G12V = biological target: T2, KRAS G12V (Homo sapiens, UniProt P01116, G12V); test: NanoBit assay for RAS activation (LgBiT-KRAS G12V / SmBiT-CRAF RAS binding domain); format: cell-based; conditions: KRAS G12V with CRAF RBD (1-149); 2 h with inhibitor in serum free DMEM; DMSO set as 1
T2 construct: K, N and HRAS G12V (full length) was cloned with Xho I and BgI II to LgBit; expressed in transfected cells
Procedure: as §1

sNF96.2 = test: RASOpathie-Model; MTT assay for cell viability in 96 well cell culture plate (FIG. 5); format: cell-based; conditions: 48 h treatment
Procedure: (§2) Metabolic activity was quantified using Cell Proliferation Kit I (Roche, Basel, Switzerland). Cells were seeded in 96-well cell culture plates, using 5000 cells per well for NCI-H358 cells. After treatment, 10 μl of MTT solution was added and incubated for 2 h in CO2 incubator. Then 100 μl of solubilization buffer was added to each well and incubated overnight in CO2 incubator. Cell viability, assessed by the amount of metabolized MTT, was quantified by measuring absorbance at 570 nm.
FIG. 5: RASOpathie-Model of GSK2126458; MTT assay for cell viability in 96 well cell culture plate
Cells were treated with GSK2126458 for 48 h and cell viability was evaluated by MTT assay. DMSO-treated cells were set as 1. The results shown are mean±SEM from 3 independent experiments.

NCI-H358 cells = test: Soft agar colony formation assay with MTT staining; format: cell-based; conditions: Homo sapiens, growth in soft agar, absorbance at 570 nm
Procedure: as §2
(§3) MTT assay for the growth of different tumor cell lines with RAS mutations in soft agar with GSK2126458. Shown are data from three independent experiments.
(§4) NCI-H358, H358, H2122, ASPC-1, HCT-116, T24 and HT1080 cells were used for the soft […] agar colony formation assay. After the treatment with GSK2126458, the colonies were stained with MTT and the value was quantified by measuring absorbance at 570 nm after solubilization. The results represent mean±SD from 3 independent experiments.

T24 cells = test: Soft agar colony formation assay with MTT staining; format: cell-based; conditions: Homo sapiens, T-24, growth in soft agar, absorbance at 570 nm
Procedure: as §2, §3, §4

HT1080 cells = test: Soft agar colony formation assay with MTT staining; format: cell-based; conditions: Homo sapiens, HT-1080, growth in soft agar, absorbance at 570 nm
Procedure: as §2, §3, §4

ASPC1 cells = test: Soft agar colony formation assay with MTT staining; format: cell-based; conditions: Homo sapiens, growth in soft agar, absorbance at 570 nm
Procedure: as §2, §3, §4

NCI-H2122 cells = test: Soft agar colony formation assay with MTT staining; format: cell-based; conditions: Homo sapiens, growth in soft agar, absorbance at 570 nm
Procedure: as §2, §3, §4

HCT-116 cells = test: Soft agar colony formation assay with MTT staining; format: cell-based; conditions: Homo sapiens, growth in soft agar, absorbance at 570 nm
Procedure: as §2, §3, §4

KRAS dependent cells = test: MTT assay for cell viability in 96 well cell culture plate (FIG. 4); format: cell-based; conditions: 48 h treatment; incl. G12C/Y96D mutation; DMSO set as 1
Procedure: as §2
FIG. 4: MTT assay for cell viability in 96 well cell culture plate Cells were treated with GSK2126458 for 48 h and cell viability was evaluated by MTT assay. […]. DMSO-treated cells were set as 1. The results shown are mean±SEM from 3 independent experiments.

NRAS G12V = biological target: T3, NRAS G12V (Homo sapiens, UniProt P01111, G12V); test: NanoBit assay for RAS activation (LgBiT-NRAS G12V / SmBiT-CRAF RAS binding domain); format: cell-based; conditions: NRAS G12V with CRAF RBD (1-149); 2 h with inhibitor in serum free DMEM; DMSO set as 1
T3 construct: K, N and HRAS G12V (full length) was cloned with Xho I and BgI II to LgBit; expressed in transfected cells
Procedure: as §1

T1 sequence (P01112 1-186 G12V limits assumed): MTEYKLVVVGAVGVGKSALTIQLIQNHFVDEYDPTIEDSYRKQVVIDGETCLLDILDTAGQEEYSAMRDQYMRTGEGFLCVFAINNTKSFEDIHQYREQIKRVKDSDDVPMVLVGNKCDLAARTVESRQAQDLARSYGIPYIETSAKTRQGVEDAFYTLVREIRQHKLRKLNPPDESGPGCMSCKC
T3 sequence (P01111 1-186 G12V limits assumed): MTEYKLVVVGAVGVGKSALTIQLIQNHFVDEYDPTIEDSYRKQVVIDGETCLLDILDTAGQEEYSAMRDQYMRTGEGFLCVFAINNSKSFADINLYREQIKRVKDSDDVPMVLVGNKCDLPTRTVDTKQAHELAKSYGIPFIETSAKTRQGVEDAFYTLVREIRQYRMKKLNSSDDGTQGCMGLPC
T2 sequence (P01116 1-186 isoform P01116-2 G12V limits assumed): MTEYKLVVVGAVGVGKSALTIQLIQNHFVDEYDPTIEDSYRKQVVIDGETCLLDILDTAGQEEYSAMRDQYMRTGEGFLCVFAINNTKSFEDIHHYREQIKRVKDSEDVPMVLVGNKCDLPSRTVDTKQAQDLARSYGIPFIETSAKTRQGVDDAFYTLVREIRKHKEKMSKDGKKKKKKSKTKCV

inhibition of H-RAS activation (NanoBit luminescence) (HRAS G12V): inhibits
inhibition of K-RAS activation (NanoBit luminescence) (KRAS G12V): inhibits
IC50 (NCI-H358 cells): 11.5 µM
IC50 (T24 cells): 228 µM
IC50 (HT1080 cells): 86.9 µM
IC50 (ASPC1 cells): 10.8 µM
IC50 (NCI-H2122 cells): 4.51 µM
IC50 (HCT-116 cells): 47.4 µM
inhibition of N-RAS activation (NanoBit luminescence) (NRAS G12V): inhibits
Compound: COc1ncc(-c2ccc3nccc(-c4ccnnc4)c3c2)cc1NS(=O)(=O)c1ccc(F)cc1F [GSK2126458, 2,4-Difluoro-N-[2-methoxy-5-[4-(4-pyridazinyl)-6-quinolinyl]-3-pyridinyl]benzenesulfonamide]
inhibition of RAS activation (RAS GTP-loading, NanoBiT) [1]: inhibits different RAS-isoforms
activity against PI3K isoforms, mTOR complexes and DNA-PK [2]: subnanomolar activity
IC50 (sNF96.2): 3.8 µM
cell viability (MTT) (KRAS dependent cells): inhibits KRAS dependent cells irrespective of the presence of mutation
